Results from patent publication US10391137B2, “Platelet-derived growth factor-BB production promotor, and mesenchymal stem cell production accelerator, stem cell stabilizer and dermal regenerator comprising the same” (Shiseido Company, Ltd., priority 2011, dated 2019).

Tested on: PDGF-B gene expression in human vascular endothelial cells HUVEC
Experiment: Evaluation of PDGF-BB production-promoting effect in vascular endothelial cells (PDGF-B mRNA, quantitative RT-PCR)
Assay type: cell-based
Conditions: 10 ppm in medium, cultured 2 days, PDGF-BB mRNA vs. solvent control, G3PDH internal standard
Protocol: Human vascular endothelial cells HUVEC were subcultured with EGM-2 medium (Sanko Junyaku Co., Ltd.), and cells of the 4th subculture were suspended in VEGF-A-free Humedia-EG2 medium (Kurabo Industries, Ltd.) and seeded in a collagen-coated 24-well multiplate (Asahi Glass Co., Ltd.) at a 20,000 cell ratio, and culturing was conducted in the presence of 5% CO2 for 3-5 days until the cells reached confluence at 37° C. After exchange with Humedia-EG2 medium (Kurabo Industries, Ltd.) containing each sample added to the specified concentration or an added solvent dissolving each evaluation sample, culturing was continued for 2 days. The mRNA was extracted and purified from the cultured cells using an RNA extraction reagent MagNA Pure LC mRNA HS kit (Roche) and an automatic nucleic acid extraction apparatus MagNA Pure LC 1.0 Instrument (Roche), according to the manufacturer's protocol. For each sample, an equal volume of mRNA was used as template for one-step quantitative real time (RT)-PCR of the PDGF-B gene using primer pairs of SEQ ID NO: 1 and 2 listed below, the reaction reagent QuantiFast SYBR Green RT-PCR Kit (Qiagen) and a LightCycler reactor (Roche). The composition conditions were according to the protocol by Qiagen. […]

Compound | PDGF-BB expression (vs. control)
O[C@H]1[C@H](O)[C@@H](O)[C@H](O)[C@@H](O)[C@H]1O [Inositol, myo-inositol] | 1.37
O=P(O)(O)O[C@H]1[C@H](OP(=O)(O)O)[C@@H](OP(=O)(O)O)[C@H](OP(=O)(O)O)[C@@H](OP(=O)(O)O)[C@H]1OP(=O)(O)O [Phytic acid, phytic acid] | 1.20
